Each molecule was assayed against T1, 11β-HSD1 (Homo sapiens, UniProt P28845) (assay: In vitro inhibition of 11β-HSD1, HTRF detection of cortisol generated from cortisone by human liver microsomes). Details: 11β-HSD IC50 (nM), 1 hour at 37° C., pH 6.0, NADPH 200 μM, cortisone 80 nM, inhibition relative to carbenoxolone signal.
T1 construct: detecting cortisol generated from cortisterone by human liver microsomes; from tissue; host or cells: human liver microsomes
Assay type: biochemical
In short: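 Cortisol formed from cortisone by human liver microsomes quantified by competitive HTRF immunoassay (XL665-cortisol, Eu-cryptate anti-cortisol antibody), 2 h detection, Em665/Em615 ratio converted via cortisol calibration curve. Percent inhibition relative to carbenoxolone signal; IC50 from curves.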

T1 sequence (P28845 whole entry): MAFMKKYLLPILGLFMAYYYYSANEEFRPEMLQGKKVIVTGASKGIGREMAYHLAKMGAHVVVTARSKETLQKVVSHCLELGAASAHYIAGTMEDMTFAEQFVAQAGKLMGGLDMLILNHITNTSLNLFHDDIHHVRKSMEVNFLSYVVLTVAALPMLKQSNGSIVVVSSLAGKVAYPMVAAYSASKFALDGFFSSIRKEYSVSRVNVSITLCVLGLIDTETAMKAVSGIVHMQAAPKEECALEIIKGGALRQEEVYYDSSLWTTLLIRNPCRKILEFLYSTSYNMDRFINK

Compound | IC50 [nM]
Cc1cnc(-c2nc3cc4c(cc3o2)[C@]2(C)CCN(C(=O)c3ccc5nc[nH]c5c3)[C@H](C4)[C@H]2C)cn1 [Example 333, (3H-Benzoimidazol-5-yl)-[(6R,10R,12S)-5,6,7,8,9,10-hexahydro-10,12-dimethyl-2-(5-methyl-pyrazin-2-yl)-6,10-methano-oxazolo[5,4-i][3]benzazocin-7-yl]-methanone] | 84
C[C@@H]1[C@H]2Cc3ccc(-c4nnco4)cc3[C@]1(C)CCN2C(=O)c1ccc2nc[nH]c2c1 [Example 334, (3H-Benzoimidazol-5-yl)-[(2R,6R,11S)-6,11 dimethyl-8-[1,3,4]oxadiazol-2-yl-1,2,5,6-tetrahydro-4H-2,6-methano-benzo[d]azocin 3-yl]-methanone] | 104
CC1(C)[C@H]2Cc3ccccc3[C@]1(C)CCN2C(=O)c1cc(F)c(O)c(F)c1 [Example 335, (3,5-Difluoro-4-hydroxy-phenyl)-[(2R,6S)-6,11,11-trimethyl-1,2,5,6-tetrahydro-4H-2,6-methano-benzo[d]azocin-3-yl]-methanone] | 115
Cc1nnc(-c2ccc3c(c2)[C@]2(C)CCN(C(=O)c4ccc5nc[nH]c5c4)[C@H](C3)[C@H]2C)n1C [Example 336, (3H-Benzoimidazol-5-yl)-[(2R,6R,11S)-8-(4,5-dimethyl-4H-[1,2,4]triazol-3-yl)-6,11-dimethyl-1,2,5,6-tetrahydro-4H-2,6-methano-benzo[d]azocin-3-yl]-methanone] | 198
CC1(C)[C@H]2Cc3cc4oc([C@H]5CCCO5)nc4cc3[C@]1(C)CCN2C(=O)c1ccc2nc[nH]c2c1 [Example 337, (3H-Benzoimidazol-5-yl)-[(6R,10S)-5,6,7,8,9,10-hexahydro-10,12,12-trimethyl-2-[(R)-tetrahydrofuran-2-yl]-6,10-methano-oxazolo[4,5-i][3]benzazocin-7-yl]-methanone] | 52
CC1(C)[C@H]2Cc3cc4oc([C@@H]5CCCO5)nc4cc3[C@]1(C)CCN2C(=O)c1ccc2nc[nH]c2c1 [Example 338, (3H-Benzoimidazol-5-yl)-[(6R,10S)-5,6,7,8,9,10-hexahydro-10,12,12-trimethyl-2-[(S)-tetrahydrofuran-2-yl]-6,10-methano-oxazolo[4,5-i][3]benzazocin-7-yl]-methanone] | 63
CC1(C)[C@H]2Cc3ccccc3[C@]1(C)CCN2C(=O)c1ccc(C(O)(C(F)(F)F)C(F)(F)F)cc1 [Example 339, [4-(2,2,2-Trifluoro-1-hydroxy-1-trifluoromethyl-ethyl)-phenyl]-[(2R,6S)-6,11,11-trimethyl-1,2,5,6-tetrahydro-4H-2,6-methano-benzo[d]azocin-3-yl]-methanone] | 1270
C[C@@H]1[C@H]2Cc3ccc(C(C)(C)O)cc3[C@]1(C)CCN2C(=O)c1ccc2nc[nH]c2c1 [Example 340, (3H-Benzoimidazol-5-yl)-[(2R,6R,11S)-8-(1-hydroxy-1-methyl-ethyl)-6,11-dimethyl-1,2,5,6-tetrahydro-4H-2,6-methano-benzo[d]azocin-3-yl]-methanone] | 67
COC(=O)c1ccc2c(c1)[C@]1(C)CCN(C(=O)c3ccc4nc[nH]c4c3)[C@H](C2)[C@H]1C [Example 341, (2R,6R,11S)-3-(3H-Benzoimidazole-5-carbonyl)-6,11-dimethyl-1,2,3,4,5,6-hexahydro-2,6-methano-benzo[d]azocine-8-carboxylic acid methyl ester] | 601
CC1(C)[C@H]2Cc3ccccc3[C@]1(C)CCN2C(=O)c1ccc(S(N)(=O)=O)cc1 [Example 342, 4-[(2R,6S)-6,11,11-Trimethyl-1,2,5,6-tetrahydro-4H-2,6-methano-benzo[d]azocine-3-carbonyl]-benzenesulfonamide] | 373
CC1(C)[C@H]2Cc3ccccc3[C@]1(C)CCN2C(=O)c1cccc(S(N)(=O)=O)c1 [Example 343, 3-[(2R,6S)-6,11,11-Trimethyl-1,2,5,6-tetrahydro-4H-2,6-methano-benzo[d]azocine-3-carbonyl]-benzenesulfonamide] | 1520
CC(O)(c1ccc2c(c1)[C@]1(C)CCN(C(=O)c3ccc4nc[nH]c4c3)[C@H](C2)C1(C)C)C(F)(F)F (stereo partly drawn) [Example 344, (3H-Benzoimidazol-5-yl)-[(2R,6S)-6,11,11-trimethyl-8-(2,2,2-trifluoro-1-hydroxy-1-methyl-ethyl)-1,2,5,6-tetrahydro-4H-2,6-methano-benzo[d]azocin-3-yl]-methanone] | 35
